Key:
Conditions in all cases: after 15 washes
[1] = Example 2A: azo dye in multicomponent kit (Michael addition), color result and wash fastness
Experimental: (§1) Pretreatment to Apply Cationic Polymer (PEI, Polyethylenimine) on the Hair Fiber Surface: • 1 ml of PEI solution (0.5% aqueous solution of PEI (MW: 75 kDa) is applied on the hair strand. • The hair strand is dried via blow-dryer, followed by further drying at 40° C. in the oven.
100 mg azo dye is suspended in 1 g THF, and 8.4 g Isododecane (2,2,4,6,6-pentamethylheptane) solution are added as solvent. Subsequently, 200 mg Silmer OH ACR DI-10 polymer (acrylate derivative) and 300 mg Silamine 2972 is added to the reaction mixture. The mixture is stirred at room temperature for 5 min.
(§2) 1 g of the above prepared formulation is applied on a pre-treated hair tress (as described above) and the polymers are allowed to react to start forming a film immobilizing the added dye. After removing the excess of the formulation, the film forming reaction is completed as the hair tress is dried via a heat blower.

[2] = Example 2B: azo dye in multicomponent kit (isocyanate / OH silicone), color result and wash fastness
Experimental: as §1
100 mg azo dye are mixed with 300 mg isocyanate polymer (Silmer NCO DI50); 9.4 g 2,2,4,6,6-pentamethylheptane are added and the mixture is well shaked.
Subsequently, 200 mg OH Silicone (Silmer OHT C-50) are added to the reaction mixture. The mixture is stirred at room temperature for 5 min.
as §2

[3] = Example 2C: azo dye in multicomponent kit (silicone & carbon-hybrid system), color result and wash fastness
Experimental: as §1
100 mg azo dye are mixed with 400 mg isocyanate polymer (Melio 09-S-11); 9.3 g 1-Methoxy-2-propanol are added and the mixture is well shaked.
as §2, with “Subsequently, 200 mg OH Silicone (Silmer OHT C-50) are added to the reaction mixture. The mixture is stirred at room temperature for 5 min. 1” for “1”

Row | Compound | color remains to an extent of [1] [%] | color remains to an extent of [2] [%] | color remains to an extent of [3] [%]
1 | CCN(CCO)c1ccc(/N=N/c2nc(N3CCN(C)CC3)c(C=C3C(=O)c4ccccc4C3=O)s2)cc1 [black azo, 2-[[2-[(E)-[4-[ethyl(2-hydroxyethyl)amino]phenyl]azo]-4-(4-methylpiperazin-1-yl)thiazol-5-yl]methylene]indane-1,3-dione] | 30 | 50 | 80
2 | CCN(CCO)c1ccc(/N=N/c2nc(Cl)c(C=C3C(=O)c4ccccc4C3=O)s2)cc1 [blue azo, 2-{[4-chloro-2-((E)-{4-[ethyl(2-hydroxyethyl)amino]phenyl}diazenyl)-1,3-thiazol-5-yl]methylidene}-1H-indene-1,3(2H)-dione] | 80 | 90 | 80
